From a melting point compilation (Tetko et al.; mined from patent text by program, amines drawn as free bases though some values may be those of a salt)

SMILES | melting point [°C]
CCOC(=O)C(Cc1ccccc1)NC(=O)COc1ccc(C2=NNC(=O)NC2)cc1 (configuration not stated) | 148 to 150
CC1=C(S(C)(=O)=O)C(c2ccc(Cl)c(Cl)c2)C2=C(CCC2=O)N1 (configuration not stated) | 218 to 220
C=C(C)c1ccc(O)cc1 | 167 to 168
O=Cc1cccc2oc3ccccc3c12 | 66 to 68
CC(C)n1cc(-c2ccc(NS(=O)(=O)c3ccccc3)cc2)c2c(N)ncnc21 | 238 to 240
CS(=O)(=O)c1cccc(CNC(=O)c2nc3scc(COCc4ccc(C(=O)O)cc4)c3c(=O)[nH]2)c1 | 265 to 267
O=[N+]([O-])c1cccc2c1CN(Cc1ccccc1)C2 | 77.5 to 78
CCc1cccc(CNC[C@@H](O)[C@H](Cc2cc(F)cc(F)c2)NC(=O)N2CCC(CS(C)(=O)=O)CC2)c1 | 130 to 134
CCCn1ncnc1COc1nn2c(-c3ccccc3F)nncc2c1C(C)(C)C | 93
O=C(CCc1cnoc1-c1ccccc1)Nc1ccc2ncccc2c1 | 170 to 171
COCCN1CCc2ccc(OC)c(Nc3ncc(Cl)c(N[C@@H]4CCCC[C@H]4NS(C)(=O)=O)n3)c2CC1 | 93 to 100
C[C@H]1Cn2c(=S)[nH]c3cccc(c32)CN1CC1CC1 | 197
OCCCCCCCCOc1ccc2ccccc2c1 | 67 to 69
NCCCCCCCCCCCCCCCCCCCCCC(=O)O | 166 to 168
CCCCc1nc2c(N)nc3ccc(OCCC4CCN(S(C)(=O)=O)CC4)cc3c2n1C | 198 to 200
COc1cc(OC)cc(S(=O)(=O)c2ccc(N)c(C)c2)c1 | 121 to 123
FC(F)(F)Oc1cccc(-c2ccc3nnn(Cc4ccc5ncccc5c4)c3n2)c1 | 140 to 142
O=C1c2ccccc2C(=O)N1CCc1nnc2n1-c1ccc(Cl)cc1C(c1ccccc1)=NC2 | 133 to 134
c1ccc(COC2COC(c3ccco3)OC2)cc1 (configuration not stated) | 50 to 52
COC(=O)C1=C(C)NC(C)=C(C(=O)OCOC(=O)C(C)C)C1c1cccc(Cl)c1Cl (configuration not stated) | 145
COc1cc(C2=NCCc3cc(C)ccc32)cc(OC)c1OC | 105 to 106
NS(=O)(=O)c1c(C(F)F)nsc1OCC(F)(F)F | 102 to 104
O=C1COc2cc(F)c(N3C(=O)C4=C(CCCC4)C3=O)cc2N1Cc1ccccn1 | 188 to 190
CCC1(O)CCC2(C)C(CCC3C4CCC(C(C)=O)C4(C)CC(=O)C32)C1 (configuration not stated) | 129
CNC(=S)N1CCc2nc(N)sc2C1 | 188 to 190
O=C(Nc1ccc(Oc2ccc(Cl)cc2)cc1)Nc1nonc1-c1ccccc1 | 195

The remaining lines, values ahead:

melting point [°C] | SMILES
71 to 72 | C=CC(C)(CCC=C(C)C)OCC(=O)c1cc(C(C)C)c(O)c(C(C)C)c1 (configuration not stated)
78 to 79 | CC(=O)c1cc(C)n(CCO)n1
80 to 81 | CC(CO)NC(=O)C(F)(F)F (configuration not stated)
182 to 184 | CNc1cc(-c2ccc(Cl)cc2)nc2nn(C)cc12
93 to 96 | COC(=O)c1ccc([N+](=O)[O-])cc1S(=O)(=O)N(C)C
88 to 90 | COC(=O)c1ccc(S(C)(=O)=O)nc1OC
158 to 159 | CCOC(=O)CNC(=O)Nc1ccc(OC)cc1F
93 | COC(=O)CCCc1cc2cc(Cl)ccc2n1S(=O)(=O)c1ccc(F)c([N+](=O)[O-])c1
128 | COc1ccc(CCN2C=CC=C3C2=Nc2cc(C)ccc2S(=O)(=O)N3C)cc1
> 280 | Cn1nc2ccc(S)nn2c1=O
94 to 97 | CC(C)(C)OC(=O)N(CC(=O)O)Cc1ccccc1
139 to 140 | O=C1Nc2cc3c(cc2O[C@H]1CCCO)CCCC3
100 to 101 | C=CC(=O)OC(C#N)Cc1cccc(Cl)c1 (configuration not stated)
103 | CCCCc1nc(S(C)=O)c(C(=O)OCC)n1CC1Oc2ccc(Cl)cc2O1 (configuration not stated)
183 to 184 | COC(=O)Cc1ccc[nH]c1=O
135 to 150 | O=C(O)CCCc1cc2nc(Cl)ccc2n1S(=O)(=O)c1c(F)cc(F)cc1F
